Reference: ChEMBL document CHEMBL5465560, “Selectivity Literature for EUbOPEN Chemogenomic Library” (2024)

Columns and labels:
[1] = target: T1, Casein kinase I isoform alpha-like (Homo sapiens) (UniProt Q8N752); conditions: at 10 µM
T1 sequence (whole entry): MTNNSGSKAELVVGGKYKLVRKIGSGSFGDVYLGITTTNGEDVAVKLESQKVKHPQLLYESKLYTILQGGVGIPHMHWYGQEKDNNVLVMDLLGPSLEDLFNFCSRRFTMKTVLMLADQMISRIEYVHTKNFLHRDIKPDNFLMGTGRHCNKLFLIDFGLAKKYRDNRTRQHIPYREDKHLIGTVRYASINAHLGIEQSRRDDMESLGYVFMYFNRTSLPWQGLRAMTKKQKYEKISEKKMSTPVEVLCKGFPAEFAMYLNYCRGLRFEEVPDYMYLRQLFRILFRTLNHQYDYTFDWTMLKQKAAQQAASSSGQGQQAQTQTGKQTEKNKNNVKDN

[2] = target: T2, Tyrosine-protein kinase JAK3 (Homo sapiens) (UniProt P52333); conditions: at 10 µM
T2 sequence (whole entry): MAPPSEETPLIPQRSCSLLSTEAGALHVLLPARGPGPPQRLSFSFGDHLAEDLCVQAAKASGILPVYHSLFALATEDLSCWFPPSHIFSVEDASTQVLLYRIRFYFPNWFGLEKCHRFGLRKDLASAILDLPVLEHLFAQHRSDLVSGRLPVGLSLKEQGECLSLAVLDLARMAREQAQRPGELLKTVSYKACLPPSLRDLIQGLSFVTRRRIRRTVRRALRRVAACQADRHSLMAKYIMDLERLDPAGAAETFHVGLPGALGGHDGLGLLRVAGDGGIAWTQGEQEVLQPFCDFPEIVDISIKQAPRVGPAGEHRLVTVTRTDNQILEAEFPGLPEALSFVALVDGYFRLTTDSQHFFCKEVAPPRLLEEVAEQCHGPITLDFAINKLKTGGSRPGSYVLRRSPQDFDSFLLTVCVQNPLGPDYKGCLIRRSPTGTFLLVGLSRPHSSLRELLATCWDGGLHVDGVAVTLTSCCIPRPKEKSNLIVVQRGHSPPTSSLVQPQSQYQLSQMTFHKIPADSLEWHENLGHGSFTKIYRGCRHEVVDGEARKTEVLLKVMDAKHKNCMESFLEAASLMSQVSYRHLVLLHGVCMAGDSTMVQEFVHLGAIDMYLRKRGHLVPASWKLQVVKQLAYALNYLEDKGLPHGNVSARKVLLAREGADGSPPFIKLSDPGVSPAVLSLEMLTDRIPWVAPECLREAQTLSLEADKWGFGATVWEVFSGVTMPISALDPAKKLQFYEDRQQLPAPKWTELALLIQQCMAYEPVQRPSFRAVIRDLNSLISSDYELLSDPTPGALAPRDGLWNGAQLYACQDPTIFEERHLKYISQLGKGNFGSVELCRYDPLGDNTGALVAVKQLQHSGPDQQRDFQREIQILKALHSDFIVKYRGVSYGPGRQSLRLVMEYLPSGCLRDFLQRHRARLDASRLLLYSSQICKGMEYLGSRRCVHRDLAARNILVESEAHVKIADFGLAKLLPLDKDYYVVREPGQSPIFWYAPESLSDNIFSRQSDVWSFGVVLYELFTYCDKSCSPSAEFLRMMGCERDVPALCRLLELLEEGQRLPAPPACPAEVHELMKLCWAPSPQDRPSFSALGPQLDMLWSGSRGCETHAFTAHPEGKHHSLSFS

[3] = target: Ribosomal protein S6 kinase alpha-1 (Homo sapiens, UniProt Q15418); assay: Selectivity interaction (ActivX KiNativ screen (kinase selectivity in THP-1 cell lysates)) EUB0000639a RPS6KA1; format: subcellular; conditions: lysate, at 0.04 µM
Chain of Ribosomal protein S6 kinase alpha-1 (Q15418 whole entry): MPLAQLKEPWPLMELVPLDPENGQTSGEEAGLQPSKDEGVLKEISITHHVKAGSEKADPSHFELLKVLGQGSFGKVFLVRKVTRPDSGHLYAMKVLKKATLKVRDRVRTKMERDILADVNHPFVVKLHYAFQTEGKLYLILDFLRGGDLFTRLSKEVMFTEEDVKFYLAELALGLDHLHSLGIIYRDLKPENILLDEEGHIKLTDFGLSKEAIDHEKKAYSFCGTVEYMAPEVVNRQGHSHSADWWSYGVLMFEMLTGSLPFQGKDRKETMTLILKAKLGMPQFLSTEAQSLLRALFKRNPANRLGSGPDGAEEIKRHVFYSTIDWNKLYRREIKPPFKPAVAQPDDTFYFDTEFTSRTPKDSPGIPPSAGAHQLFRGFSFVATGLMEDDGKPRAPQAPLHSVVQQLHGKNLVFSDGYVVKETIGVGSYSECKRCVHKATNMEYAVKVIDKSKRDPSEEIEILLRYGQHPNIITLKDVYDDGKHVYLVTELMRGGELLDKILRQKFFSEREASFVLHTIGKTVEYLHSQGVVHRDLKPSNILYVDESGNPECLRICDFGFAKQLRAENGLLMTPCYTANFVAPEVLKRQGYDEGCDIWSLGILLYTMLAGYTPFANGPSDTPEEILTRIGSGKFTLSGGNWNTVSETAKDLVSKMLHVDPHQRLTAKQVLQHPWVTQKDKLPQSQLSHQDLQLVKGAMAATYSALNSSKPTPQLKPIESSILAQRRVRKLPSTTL

D(1A) dopamine receptor = D(1A) dopamine receptor (Homo sapiens, UniProt P21728); assay: Selectivity interaction (Panel of non-epigenetic targets (kinases, GPCRs, ion channels, and transporters, Eurofins) ) EUB0000271b DRD1; conditions: at 1 µM
Chain of D(1A) dopamine receptor (P21728 whole entry, canonical isoform): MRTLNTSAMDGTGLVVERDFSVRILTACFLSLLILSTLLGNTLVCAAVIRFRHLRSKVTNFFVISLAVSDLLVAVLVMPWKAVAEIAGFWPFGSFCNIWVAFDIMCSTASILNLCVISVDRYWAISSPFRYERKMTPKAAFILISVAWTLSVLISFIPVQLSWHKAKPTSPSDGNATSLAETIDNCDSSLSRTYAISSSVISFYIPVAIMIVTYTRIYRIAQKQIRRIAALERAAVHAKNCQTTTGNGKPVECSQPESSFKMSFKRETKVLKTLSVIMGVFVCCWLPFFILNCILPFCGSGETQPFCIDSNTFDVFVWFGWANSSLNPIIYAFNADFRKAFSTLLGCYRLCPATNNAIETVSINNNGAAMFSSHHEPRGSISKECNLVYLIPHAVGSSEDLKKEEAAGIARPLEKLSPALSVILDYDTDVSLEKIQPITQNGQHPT

[4] = target: Phosphatidylinositol 4,5-bisphosphate 3-kinase catalytic subunit beta isoform (Homo sapiens) (UniProt P42338); assay: Selectivity interaction (KinomeScan (DiscoverX)) EUB0000695a PIK3CB; conditions: at 100 nM
[5] = target: Serine/threonine-protein kinase Nek7 (Homo sapiens) (UniProt Q8TDX7); assay: Selectivity interaction (KinomeScan (DiscoverX)) EUB0000595a NEK7; conditions: at 10 µM
Chain of Serine/threonine-protein kinase Nek7 (Homo sapiens) (Q8TDX7 whole entry, looked up): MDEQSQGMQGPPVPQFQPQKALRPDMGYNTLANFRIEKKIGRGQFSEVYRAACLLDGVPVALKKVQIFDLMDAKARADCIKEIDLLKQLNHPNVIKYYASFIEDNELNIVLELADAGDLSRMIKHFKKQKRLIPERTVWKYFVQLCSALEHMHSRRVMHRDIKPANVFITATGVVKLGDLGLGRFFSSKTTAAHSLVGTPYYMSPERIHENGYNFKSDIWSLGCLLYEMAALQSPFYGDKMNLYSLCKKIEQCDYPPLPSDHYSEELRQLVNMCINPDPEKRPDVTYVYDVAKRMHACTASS

[6] = target: Tyrosine-protein kinase Lck (Homo sapiens, UniProt P06239); assay: Selectivity interaction (Kinase panel (KiNativ target engagement assay in Jurkat cells)) EUB0001635a LCK; format: cell-based; conditions: Selectivity number of off-targets 0.0, Selectivity number of targets 233.0, Source Knowledge https://www.sciencedirect.com/science/article/pii/S2451945619300674?via%3Dihub, at 1 µM
Chain of Tyrosine-protein kinase Lck (P06239 2-509 limits assumed): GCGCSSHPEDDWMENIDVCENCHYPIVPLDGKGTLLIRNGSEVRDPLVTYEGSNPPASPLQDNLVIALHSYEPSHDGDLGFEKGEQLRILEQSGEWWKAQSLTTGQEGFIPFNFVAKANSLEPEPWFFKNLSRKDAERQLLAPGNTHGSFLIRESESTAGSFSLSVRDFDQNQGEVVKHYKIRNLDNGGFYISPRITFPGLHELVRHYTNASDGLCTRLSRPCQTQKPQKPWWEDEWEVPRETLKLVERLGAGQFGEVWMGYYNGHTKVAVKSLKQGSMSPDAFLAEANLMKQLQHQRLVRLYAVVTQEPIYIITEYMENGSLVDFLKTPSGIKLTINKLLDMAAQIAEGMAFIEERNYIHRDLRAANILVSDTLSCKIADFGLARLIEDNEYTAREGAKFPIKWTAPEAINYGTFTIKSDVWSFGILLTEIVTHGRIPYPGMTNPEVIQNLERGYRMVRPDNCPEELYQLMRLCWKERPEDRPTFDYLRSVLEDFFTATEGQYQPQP

[7] = target: Histone-lysine N-methyltransferase, H3 lysine-79 specific (Homo sapiens, UniProt Q8TEK3); assay: Selectivity interaction (Transferase panel (protein, RNA, and DNA methyltransferases. and EP300 (acetyltransferase))) EUB0000270b DOT1L
Chain of Histone-lysine N-methyltransferase, H3 lysine-79 specific (Q8TEK3 whole entry, looked up): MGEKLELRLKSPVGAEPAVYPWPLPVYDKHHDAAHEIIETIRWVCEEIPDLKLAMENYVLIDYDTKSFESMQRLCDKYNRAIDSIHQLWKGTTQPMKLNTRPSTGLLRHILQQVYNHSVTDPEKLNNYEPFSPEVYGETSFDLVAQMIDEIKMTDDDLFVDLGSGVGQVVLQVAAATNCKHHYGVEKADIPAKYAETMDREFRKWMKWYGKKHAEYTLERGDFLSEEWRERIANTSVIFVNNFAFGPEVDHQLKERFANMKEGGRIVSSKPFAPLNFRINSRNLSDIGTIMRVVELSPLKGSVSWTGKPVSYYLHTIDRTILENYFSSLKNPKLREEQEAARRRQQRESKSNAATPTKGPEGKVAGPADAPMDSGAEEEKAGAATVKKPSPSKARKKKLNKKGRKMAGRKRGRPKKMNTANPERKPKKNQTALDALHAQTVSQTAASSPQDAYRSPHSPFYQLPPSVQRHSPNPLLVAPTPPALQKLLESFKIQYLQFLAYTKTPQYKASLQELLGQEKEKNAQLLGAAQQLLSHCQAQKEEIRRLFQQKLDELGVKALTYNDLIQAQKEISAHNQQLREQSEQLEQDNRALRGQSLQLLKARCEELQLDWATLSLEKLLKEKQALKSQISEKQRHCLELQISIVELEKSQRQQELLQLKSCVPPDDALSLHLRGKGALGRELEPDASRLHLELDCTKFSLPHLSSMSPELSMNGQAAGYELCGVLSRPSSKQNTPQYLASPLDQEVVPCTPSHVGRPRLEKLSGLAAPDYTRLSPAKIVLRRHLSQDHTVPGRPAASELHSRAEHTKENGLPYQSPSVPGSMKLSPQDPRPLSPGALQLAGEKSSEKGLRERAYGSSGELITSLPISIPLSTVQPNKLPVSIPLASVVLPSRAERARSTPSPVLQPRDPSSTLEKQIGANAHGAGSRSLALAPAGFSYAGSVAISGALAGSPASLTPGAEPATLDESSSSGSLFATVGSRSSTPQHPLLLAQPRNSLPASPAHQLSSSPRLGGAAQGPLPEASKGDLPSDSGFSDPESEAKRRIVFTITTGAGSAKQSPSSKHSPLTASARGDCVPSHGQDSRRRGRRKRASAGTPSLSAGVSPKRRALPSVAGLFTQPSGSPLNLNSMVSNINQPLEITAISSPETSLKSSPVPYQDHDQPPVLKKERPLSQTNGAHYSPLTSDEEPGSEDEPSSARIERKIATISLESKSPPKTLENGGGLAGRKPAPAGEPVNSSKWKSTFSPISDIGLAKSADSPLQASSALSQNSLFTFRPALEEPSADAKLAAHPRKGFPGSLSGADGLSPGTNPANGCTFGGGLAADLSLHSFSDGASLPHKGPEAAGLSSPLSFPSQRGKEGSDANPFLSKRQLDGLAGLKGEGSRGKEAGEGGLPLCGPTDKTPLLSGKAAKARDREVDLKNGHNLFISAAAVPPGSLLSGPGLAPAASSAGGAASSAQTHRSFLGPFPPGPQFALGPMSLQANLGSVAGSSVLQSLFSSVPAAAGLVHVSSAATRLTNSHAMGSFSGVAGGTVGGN

[8] = target: T3, Serine/threonine-protein kinase DCLK3 (Homo sapiens) (UniProt Q9C098); assay: Selectivity interaction (KinomeScan (DiscoverX)) EUB0000229b DCLK3; conditions: at 10 µM
T3 sequence (whole entry): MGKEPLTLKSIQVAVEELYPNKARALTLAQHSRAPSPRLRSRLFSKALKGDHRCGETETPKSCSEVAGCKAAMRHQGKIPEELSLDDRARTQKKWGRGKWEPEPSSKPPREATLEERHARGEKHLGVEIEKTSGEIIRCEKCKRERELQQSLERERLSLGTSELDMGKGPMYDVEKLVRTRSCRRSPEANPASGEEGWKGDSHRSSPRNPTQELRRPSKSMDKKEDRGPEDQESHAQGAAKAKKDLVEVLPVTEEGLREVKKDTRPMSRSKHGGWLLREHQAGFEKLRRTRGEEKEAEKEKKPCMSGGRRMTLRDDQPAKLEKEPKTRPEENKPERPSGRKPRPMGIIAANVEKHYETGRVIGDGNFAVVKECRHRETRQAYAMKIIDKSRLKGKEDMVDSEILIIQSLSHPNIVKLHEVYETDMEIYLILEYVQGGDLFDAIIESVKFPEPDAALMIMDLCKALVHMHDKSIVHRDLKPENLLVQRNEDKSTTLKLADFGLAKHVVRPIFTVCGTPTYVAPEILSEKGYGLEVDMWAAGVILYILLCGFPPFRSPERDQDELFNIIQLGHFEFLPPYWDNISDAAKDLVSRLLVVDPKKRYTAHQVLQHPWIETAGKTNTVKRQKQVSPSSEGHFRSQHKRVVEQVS

[9] = target: Tyrosine-protein kinase JAK1 (Homo sapiens, UniProt P23458); assay: Selectivity interaction (KinomeScan (DiscoverX)) EUB0000618a JAK1; conditions: at 10 µM
Chain of Tyrosine-protein kinase JAK1 (P23458 whole entry): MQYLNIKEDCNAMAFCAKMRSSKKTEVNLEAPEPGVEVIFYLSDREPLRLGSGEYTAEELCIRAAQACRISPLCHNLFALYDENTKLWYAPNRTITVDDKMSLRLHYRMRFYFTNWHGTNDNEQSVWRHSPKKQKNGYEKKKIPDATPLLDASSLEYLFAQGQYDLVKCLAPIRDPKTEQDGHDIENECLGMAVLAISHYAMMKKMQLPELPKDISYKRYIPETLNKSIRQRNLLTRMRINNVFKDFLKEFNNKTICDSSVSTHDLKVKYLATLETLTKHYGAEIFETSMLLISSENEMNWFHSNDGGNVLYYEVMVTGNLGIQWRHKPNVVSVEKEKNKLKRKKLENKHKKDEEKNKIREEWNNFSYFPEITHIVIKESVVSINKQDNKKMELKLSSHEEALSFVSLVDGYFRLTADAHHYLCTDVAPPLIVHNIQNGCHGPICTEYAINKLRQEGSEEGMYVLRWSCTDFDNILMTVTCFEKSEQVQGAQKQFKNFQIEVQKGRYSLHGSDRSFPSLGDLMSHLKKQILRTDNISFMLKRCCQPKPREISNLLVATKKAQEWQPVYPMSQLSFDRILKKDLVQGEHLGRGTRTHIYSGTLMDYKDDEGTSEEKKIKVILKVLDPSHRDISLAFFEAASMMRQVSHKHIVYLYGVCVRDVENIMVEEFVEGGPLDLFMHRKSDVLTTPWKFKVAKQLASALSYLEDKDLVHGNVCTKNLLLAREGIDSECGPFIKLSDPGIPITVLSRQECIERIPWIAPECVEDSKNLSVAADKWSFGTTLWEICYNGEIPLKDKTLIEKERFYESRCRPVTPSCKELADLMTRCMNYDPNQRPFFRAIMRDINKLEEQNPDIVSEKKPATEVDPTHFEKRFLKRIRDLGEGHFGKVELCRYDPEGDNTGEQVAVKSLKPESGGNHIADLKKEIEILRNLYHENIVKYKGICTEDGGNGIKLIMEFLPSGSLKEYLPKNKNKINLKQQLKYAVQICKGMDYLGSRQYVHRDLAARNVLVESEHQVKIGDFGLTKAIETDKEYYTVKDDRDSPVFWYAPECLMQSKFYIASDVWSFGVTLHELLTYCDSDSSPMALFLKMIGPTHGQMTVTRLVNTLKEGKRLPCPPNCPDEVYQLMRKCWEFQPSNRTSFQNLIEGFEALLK

With `CCN(CC)CCCCNc1ncc2cc(-c3cc(OC)cc(OC)c3)c(NC(=O)NC(C)(C)C)nc2n1` the % of control [1] was 100% and the % of control [2] was 100%.
In the case of `CC[C@@H]1[C@H](F)C(=O)N[C@@H]1COc1nccc2cc(C(N)=O)c(OC)cc12` [ZIMLOVISERTIB], the % of inhibition [3] is reported as 12.4%.
`Cc1cc(C)cc([C@@H]2c3cc(C)ccc3NC(=O)CN2C(=O)c2ccc(Br)s2)c1` gave a % of inhibition (D(1A) dopamine receptor) of 9%.
`Cc1cc(F)c(C(=O)Nc2cccc(-c3nncn3C(C)C)n2)cc1-n1cnc(C2CC2)c1` showed a % of control [4] of 100%.
`COCC(=O)NC/C=C/c1ccc2ncnc(Nc3ccc(Oc4ccc(C)nc4)c(C)c3)c2c1` [CP-724714] gave a % of control [5] of 73%.
With `C=CC(=O)Nc1ccc(C(=O)Nc2[nH]nc3c2CN(C(=O)N[C@H](CN(C)C)c2ccccc2)C3(C)C)cc1` the % of engagement [6] was -3.6%.
`Cc1cc(CN)cc(C)c1-c1ncn(C)c1-c1cncn1C` was tested, and the % activity ([7]; at 1 µM) was > 90% and the % activity ([7]; at 10 µM) was > 80%.
Compound `COc1cc(N(C)c2ccnc3ccc(C(F)(F)F)cc23)cc(OC)c1OC` has a % binding [8] of 97%.
In the case of `O[C@H]1CC[C@H](Nc2ncc3nc(Nc4c(F)cc(F)cc4F)n([C@H]4CCOC4)c3n2)CC1`, the % of control [9] is reported as 70%.
